Results reported in US6677310B1, “Ring-expanded nucleosides and nucleotides” (Nabi, priority 1999, dated 2004).

What was measured:
HIV = assay: Antiviral test against HIV; assay type: cell-based
Experimental: (§1) These compounds were also tested for their effects on HIV (Weislow, O. , et al., J. Natl. Cancer Inst., 81:577-586, 1989), herpes simplex virus (HSV)-1, HSV-2, cytomegalovirus (CMV), Varicella Zoster virus (VZV) and Epstein-Barr virus (EBV) replication (National Institute of Allergy and Infectious Diseases (NIAID), NIH, Bethesda, Md.).

[1] = test system: herpes simplex virus (HSV)-1; assay: Antiviral test against HSV-1; assay type: cell-based
Experimental: as §1

Epstein-Barr virus (EBV) = assay: Antiviral test against EBV; assay type: cell-based
Experimental: as §1

[2] = test system: panel of cancer cell lines; assay: In vitro anti-cancer assay, panel of cancer cell lines (sulforhodamine B); assay type: cell-based, human; settings: leukemia, non-small cell lung, colon, CNS, melanoma, ovarian, renal, prostate and breast cancer cell lines; read-out: GI50 values, range over the panel
EKVX = assay type: cell-based, human; settings: EKVX (Non-Small Cell Lung Cancer), 48 h
HOP-92 = assay type: cell-based, human; settings: HOP-92 (Non-Small Cell Lung Cancer), 48 h
NCI-H226 = assay type: cell-based, human; settings: NCI-H226 (Non-Small Cell Lung Cancer), 48 h
NCI-H23 = assay type: cell-based, human; settings: NCI-H23 (Non-Small Cell Lung Cancer), 48 h
HCT-116 = assay: SRB anti-cancer assay, Colon Cancer; assay type: cell-based, human; settings: HCT-116 (Colon Cancer), 48 h
HT29 = assay: SRB anti-cancer assay, Colon Cancer; assay type: cell-based, human; settings: 48 h
KM12 = assay: SRB anti-cancer assay, Colon Cancer; assay type: cell-based, human; settings: 48 h
SF-295 = assay: SRB anti-cancer assay, CNS Cancer; assay type: cell-based, human; settings: SF-295 (CNS Cancer), 48 h
SNB-19 = assay: SRB anti-cancer assay, CNS Cancer; assay type: cell-based, human; settings: SNB-19 (CNS Cancer), 48 h
U251 = assay: SRB anti-cancer assay, CNS Cancer; assay type: cell-based, human; settings: 48 h
LOX IMVI = assay: SRB anti-cancer assay, Melanoma; assay type: cell-based, human; settings: 48 h
SK-MEL-5 = assay: SRB anti-cancer assay, Melanoma; assay type: cell-based, human; settings: SK-MEL-5 (Melanoma), 48 h
IGROV1 = assay: SRB anti-cancer assay, Ovarian Cancer; assay type: cell-based, human; settings: 48 h
OVCAR-5 = assay: SRB anti-cancer assay, Ovarian Cancer; assay type: cell-based, human; settings: OVCAR-5 (Ovarian Cancer), 48 h
TK-10 = assay: SRB anti-cancer assay, Renal Cancer; assay type: cell-based, human; settings: TK-10 (Renal Cancer), 48 h
PC-3 = assay: SRB anti-cancer assay, Prostate Cancer; assay type: cell-based, human; settings: PC-3 (Prostate Cancer), 48 h
MCF7 = assay: SRB anti-cancer assay, Breast Cancer; assay type: cell-based, human; settings: 48 h
MDA-MB- 231/ATCC = assay: SRB anti-cancer assay, Breast Cancer; assay type: cell-based, human; settings: MDA-MB- 231/ATCC (Breast Cancer), 48 h
HS 578T = assay: SRB anti-cancer assay, Breast Cancer; assay type: cell-based, human; settings: HS 578T (Breast Cancer), 48 h
MDA-MB-435 = assay: SRB anti-cancer assay, Breast Cancer; assay type: cell-based, human; settings: MDA-MB-435 (Breast Cancer), 48 h
BT-549 = assay: SRB anti-cancer assay, Breast Cancer; assay type: cell-based, human; settings: BT-549 (Breast Cancer), 48 h
T-47D = assay: SRB anti-cancer assay, Breast Cancer; assay type: cell-based, human; settings: T-47D (Breast Cancer), 48 h
[3] = read-out: LC50 (the source's name)

How did the “antiviral activity against HIV” value (HIV) turn out when `N=c1nc(N)c2ncn([C@@H]3O[C@H](CO)[C@@H](O)[C@H]3O)c2c(N)n1` [Compound 14-2, 4,8-Diamino-6H-6-imino-1-β-D-ribofuranosylimidazo[4,5-e][1,3]diazepine] was run?
Its value is “no antiviral activity”.

What about the “antiviral activity against HSV-1” value [1] of the same compound?
The value was “no antiviral activity”.

And the “antiviral activity against EBV” value (Epstein-Barr virus (EBV))?
Its value is “no antiviral activity”.

And the GI50 [2]?
The GI50 was 1 to 10 µM.

What about the GI50 (EKVX) of the same compound?
The GI50 was 14.3 µM.

What about the TGI (EKVX) of the same compound?
The TGI was 27.3 µM.

And the CC50 (EKVX; [3])?
Its CC50 is 52.3 µM.

And the GI50 (HOP-92)?
The GI50 was 19.2 µM.

What about the TGI (HOP-92) of the same compound?
Its TGI is 40 µM.

What about the CC50 (HOP-92; [3]) of the same compound?
Its CC50 is 83.7 µM.

What about the GI50 (NCI-H226) of the same compound?
Its GI50 is 33.2 µM.

And the TGI (NCI-H226)?
Its TGI is greater than 100 µM.

What about the CC50 (NCI-H226; [3]) of the same compound?
Its CC50 is greater than 100 µM.

And the GI50 (NCI-H23)?
The GI50 was 16.8 µM.

And the TGI (NCI-H23)?
The TGI was 33.4 µM.

What about the CC50 (NCI-H23; [3]) of the same compound?
The CC50 was 66.2 µM.

What about the GI50 (HCT-116) of the same compound?
The GI50 was 13.3 µM.

And the TGI (HCT-116)?
The TGI was 26.8 µM.

What about the CC50 (HCT-116; [3]) of the same compound?
The CC50 was 54.2 µM.

What about the GI50 (HT29) of the same compound?
The GI50 was 10.4 µM.

And the TGI (HT29)?
Its TGI is 35.7 µM.

And the CC50 (HT29; [3])?
Its CC50 is greater than 100 µM.

And the GI50 (KM12)?
Its GI50 is 18.6 µM.

And the LC50 (KM12)?
The LC50 was greater than 100 µM.

What about the TGI (KM12) of the same compound?
The TGI was 59.3 µM.

What about the GI50 (SF-295) of the same compound?
The GI50 was 24.7 µM.

And the TGI (SF-295)?
The TGI was 63.7 µM.

And the CC50 (SF-295; [3])?
The CC50 was greater than 100 µM.

What about the GI50 (SNB-19) of the same compound?
The GI50 was 17.1 µM.

And the TGI (SNB-19)?
Its TGI is 51.5 µM.

What about the CC50 (SNB-19; [3]) of the same compound?
The CC50 was greater than 100 µM.

And the GI50 (U251)?
The GI50 was 20.1 µM.

What about the TGI (U251) of the same compound?
Its TGI is 45 µM.

And the CC50 (U251; [3])?
The CC50 was greater than 100 µM.

What about the GI50 (LOX IMVI) of the same compound?
Its GI50 is 7.16 µM.

What about the TGI (LOX IMVI) of the same compound?
The TGI was 21.3 µM.

What about the CC50 (LOX IMVI; [3]) of the same compound?
Its CC50 is 51.2 µM.

And the GI50 (SK-MEL-5)?
The GI50 was 10.8 µM.

What about the TGI (SK-MEL-5) of the same compound?
The TGI was 23.5 µM.

And the CC50 (SK-MEL-5; [3])?
Its CC50 is 50.9 µM.

What about the GI50 (IGROV1) of the same compound?
The GI50 was 14 µM.

And the TGI (IGROV1)?
Its TGI is 30.5 µM.

What about the CC50 (IGROV1; [3]) of the same compound?
Its CC50 is 66.3 µM.

What about the GI50 (OVCAR-5) of the same compound?
The GI50 was 16.8 µM.

And the TGI (OVCAR-5)?
Its TGI is 32.7 µM.

And the CC50 (OVCAR-5; [3])?
Its CC50 is 64 µM.

And the GI50 (TK-10)?
The GI50 was 15.1 µM.

What about the TGI (TK-10) of the same compound?
Its TGI is 31.2 µM.

And the CC50 (TK-10; [3])?
The CC50 was 64.6 µM.

What about the GI50 (PC-3) of the same compound?
The GI50 was 16.6 µM.

What about the TGI (PC-3) of the same compound?
The TGI was 44.5 µM.

And the CC50 (PC-3; [3])?
Its CC50 is greater than 100 µM.

And the GI50 (MCF7)?
The GI50 was 5.81 µM.

What about the TGI (MCF7) of the same compound?
Its TGI is 22.3 µM.

And the CC50 (MCF7; [3])?
The CC50 was 63.4 µM.

What about the GI50 (MDA-MB- 231/ATCC) of the same compound?
The GI50 was 23.8 µM.

What about the TGI (MDA-MB- 231/ATCC) of the same compound?
Its TGI is 52.8 µM.

What about the CC50 (MDA-MB- 231/ATCC; [3]) of the same compound?
The CC50 was greater than 100 µM.

And the GI50 (HS 578T)?
The GI50 was 7.58 µM.

And the TGI (HS 578T)?
The TGI was 31.6 µM.

And the CC50 (HS 578T; [3])?
Its CC50 is greater than 100 µM.

And the GI50 (MDA-MB-435)?
Its GI50 is 12.8 µM.

What about the TGI (MDA-MB-435) of the same compound?
Its TGI is 29.1 µM.

And the CC50 (MDA-MB-435; [3])?
The CC50 was 65.9 µM.

What about the GI50 (BT-549) of the same compound?
The GI50 was 15.6 µM.

And the TGI (BT-549)?
Its TGI is 32.2 µM.

And the CC50 (BT-549; [3])?
Its CC50 is 66.4 µM.

And the GI50 (T-47D)?
Its GI50 is 13.3 µM.

And the TGI (T-47D)?
Its TGI is 39.6 µM.

And the CC50 (T-47D; [3])?
Its CC50 is greater than 100 µM.
